# How the values were obtained:
# [1] = tested on: A. fumigatus strain IFM52108; assay: A. fumigatus respiratory tract infection model; format: in vivo, mice
# Method: (§1) Female DBA/2N mice (age 8 weeks, Charles River Laboratories Japan, Inc.) were subcutaneously administered 200 mg/kg of 5-fluorouracil 5 or 6 days prior to infection in order to put the mice into a compromised state.
# (§2) A. fumigatus strain IFM52108 and A. flavus strain IFM50915 were used.
# A liquid containing spores of A. fumigatus strain IFM52108 stored at −80° C. was applied to Potato Dextrose agar medium (PDA, Eiken Chemical Co., Ltd.) followed by static culturing for 5 to 7 days at 35° C. and suspending in sterile physiological saline containing 0.05% Tween 80.
# The number of spores was counted using a hemocytometer, and the liquid was diluted with sterile physiological saline containing 0.05% Tween 80 to a concentration of 1.2×10^6 cells/mL to 2.5×10^6 cells/mL to obtain an inoculation fungus liquid.
# (§3) 50 μl of inoculation fungus liquid were inoculated into the nasal cavities of 9-week-old mice at 0.3×10^5 cells/mouse to 1.25×10^5 cells/mouse under Ketalar anesthesia.
# (§4) 0.1 mL to 0.2 mL of each drug solution (dissolved in sterile physiological saline or 5% glucose solution, or dissolved in sterile physiological saline or 5% glucose solution containing 6.5% dimethylsulfoxide and 3.5% Tween 80) was administered to the individual and combination dose groups either into the peritoneal cavity or into the stomach using a gastric cannula corresponding to the administration route of the drug for 3 to 4 days at the rate of 1 to 2 times per day starting 0.5 hours to 1 hour after inoculation of fungus.
# (§5) There were 5 to 9 animals in each group.
# (§6) Infection protection results were assessed on survival rate 14 days after infection.
# [2] = tested on: A. flavus strain IFM50915; assay: A. flavus respiratory tract infection model; format: in vivo, mice
# Method: as §1, §2
# A liquid containing spores of A. flavus strain IFM50915 stored at −80° C. was thawed, and the number of spores was counted using a hemocytometer followed by diluting with sterile physiological saline containing 0.05% Tween 80 to a concentration of 0.6×10^6 cells/mL to 1.0×10^6 cells/mL to obtain an inoculation fungus liquid.
# as §3, §4, §5, §6
# [3] = tested on: C. albicans; assay: In vitro combination effects, checkerboard method by micro dilution (FIC index); format: cell-based, Candida albicans; settings: C. albicans (20 strains); combination use with Test Compound 1
# Method: (§7) A clinically isolated strain retained by the Medical Mycology Research Center of Chiba University (Code No. IFM) and a clinically isolated strain retained by the Life Science Research Center of Gifu University (Code No. E) were used as Candida and Aspergillus strains.
# (§8) Fungus liquid obtained by static culturing at 35° C. for 48 hours in Sabouraud Dextrose liquid medium (SDB, Becton, Dickinson and Co.) was diluted with RPMI 1640 medium (Nissui Pharmaceutical Co., Ltd.) containing 0.165 M 3-(N-morpholino)propanesulfonic acid (MOPS) to prepare a fungus liquid having a fungus concentration of 1×10^3 cells/mL to 2×10^3 cells/mL.
# (§9) Test Compound 1 (0.0005 μg/mL to 1.56 μg/mL) in the horizontal rows (12 wells) of a 96-well flat-bottom plate, and an antifungal agent in the form of ravuconazole (0.0015 μg/mL to 6.25 μg/mL), fluconazole (0.008 μg/mL to 32 μg/mL), voriconazole (0.0002 μg/mL to 8 μg/mL), micafungin (0.0005 μg/mL to 0.25 μg/mL), caspofungin (0.0005 μg/mL to 1 μg/mL) or amphotericin B (0.008 μg/mL to 8 μg/mL) in the vertical rows (8 wells) of the flat-bottom plate were prepared by diluting so as to blend together using RPMI 1640 medium containing 0.165 M MOPS to obtain a control group, a single Test Compound 1 group, each one of antifungal agents groups and combination groups of Test Compound 1+each one of antifungal agents.
# (§10) The fungus liquids prepared in (1) were inoculated into the wells of 96-well flat-bottom plate containing 20 μL/well to 75 μL/well of the diluted test drug liquids prepared in (2) at 80 μL/well to 125 μL/well, followed by aerobically static culturing for 25 hours to 48 hours at 35° C.
# (§11) Combination effects of Test Compound 1 and the antifungal agents were measured with the checkerboard method by micro dilution.
# (§12) Interaction between both drugs was assessed by calculating the FIC index using the calculation formula indicated below.
# (§13) The FIC index was calculated for each combination of antifungal agent concentrations that inhibited fungal growth, and the minimum value of the resulting FIC index was used as a combination FIC index.
# (§14) A combination FIC index of 0.5 or less was evaluated as indicating synergistic action, that of 0.5 to 1 or less was evaluated as indicating additive action, and that of 1 to 4 or less was evaluated as indicating indifferent action.
# (§15) FIC Index=(MIC value of drug A during combination use/MIC value of drug A when used alone)+(MIC value of drug B during combination use/MIC value of drug B when used alone) (Calculation Formula)
# [4] = tested on: C. tropicalis; assay: as above; format: cell-based, Candida tropicalis; settings: C. tropicalis (10 strains); combination use with Test Compound 1
# Method: as §7, §8, §9, §10, §11, §12, §13, §14, §15
# [5] = tested on: C. glabrata; assay: as above; format: cell-based, Candida glabrata; settings: for Ratio indicating Additive effect of combination use with Test Compound 1 / Ratio indicating Antagonistic effect of combination use with Test Compound 1 / Ratio indicating Indifferent effect of combination use with Test Compound 1 / Ratio indicating Synergistic effect of combination use with Test Compound 1: C. glabrata (10 strains)
# Method: as §7, §8, §9, §10, §11, §12, §13, §14, §15
# [6] = tested on: A. fumigatus; assay: as above; format: cell-based, Aspergillus fumigatus; settings: A. fumigatus (18 strains)
# Method: as §7
# (§16) An Aspergillus strain stored frozen at −80° C., or spores obtained by static culturing at 35° C. for 1 week in Potato Dextrose agar medium (PDA, Eiken Chemical Co., Ltd.) followed by scraping from the container with a metal loop, was diluted with RPMI 1640 medium containing 0.165 M MOPS to prepare a fungus liquid having a fungus concentration of 0.75×10^4 cells/mL to 1.33×10^4 cells/mL.
# as §9, §10, §11, §12, §13, §14, §15
# [7] = tested on: A. flavus; assay: as above; format: cell-based, Aspergillus flavus; settings: A. flavus (4 strains), Table 1
# Method: as §7, §16, §9, §10, §11, §12, §13, §14, §15
# [8] = combination with the test compound of the invention
Structure (SMILES),Ratio indicating Additive effect of combination use with Test Compound 1 [3] [%],Ratio indicating Antagonistic effect of combination use with Test Compound 1 [3] [%],Ratio indicating Indifferent effect of combination use with Test Compound 1 [3] [%],Ratio indicating Synergistic effect of combination use with Test Compound 1 [3] [%],Ratio indicating Additive effect of combination use with Test Compound 1 [4] [%],Ratio indicating Antagonistic effect of combination use with Test Compound 1 [4] [%],Ratio indicating Indifferent effect of combination use with Test Compound 1 [4] [%],Ratio indicating Synergistic effect of combination use with Test Compound 1 [4] [%],Ratio indicating Additive effect of combination use with Test Compound 1 [5] [%],Ratio indicating Antagonistic effect of combination use with Test Compound 1 [5] [%],Ratio indicating Indifferent effect of combination use with Test Compound 1 [5] [%],Ratio indicating Synergistic effect of combination use with Test Compound 1 [5] [%],Ratio indicating Additive effect of combination use with Test Compound 1 [6] [%],Ratio indicating Antagonistic effect of combination use with Test Compound 1 [6] [%],Ratio indicating Indifferent effect of combination use with Test Compound 1 [6] [%],Ratio indicating Synergistic effect of combination use with Test Compound 1 [6] [%],Ratio indicating Additive effect of combination use with Test Compound 1 [7] [%],Ratio indicating Antagonistic effect of combination use with Test Compound 1 [7] [%],Ratio indicating Indifferent effect of combination use with Test Compound 1 [7] [%],Ratio indicating Synergistic effect of combination use with Test Compound 1 [7] [%],further results
"Nc1ncccc1-c1cc(Cc2ccc(COc3ccccn3)cc2)no1 [Test Compound 1, 3-(3-(4-(pyridin-2-yloxymethyl)-benzyl)-isoxazol-5-yl)-pyridin-2-ylamine]",,,,,,,,,,,,,,,,,,,,,"14-day survival rate ([1]; Test Compound 1 10 mg/kg, Table 3 MCFG experiment): 0%; 14-day survival rate ([1]; Test Compound 1 10 mg/kg, Table 3 RVCZ experiment): 0%; 14-day survival rate ([1]; Test Compound 1 10 mg/kg, Table 3 VRCZ experiment): 40%; 14-day survival rate ([1]; Test Compound 1 20 mg/kg, Table 3 MCFG experiment): 20%; 14-day survival rate ([1]; Test Compound 1 20 mg/kg, Table 3 RVCZ experiment): 20%; 14-day survival rate ([1]; Test Compound 1 20 mg/kg, Table 3 VRCZ experiment): 40%; 14-day survival rate ([2]; Test Compound 1 5 mg/kg, Table 4 AMPH experiment): 20%; 14-day survival rate ([2]; Test Compound 1 5 mg/kg, Table 4 MCFG experiment): 12.5%; 14-day survival rate ([2]; Test Compound 1 5 mg/kg, Table 4 RVCZ experiment): 20%; 14-day survival rate ([2]; Test Compound 1 8 mg/kg, Table 4 CSFG experiment): 0%; 14-day survival rate ([2]; Test Compound 1 10 mg/kg, Table 4 AMPH experiment): 60%; 14-day survival rate ([2]; Test Compound 1 10 mg/kg, Table 4 RVCZ experiment): 60%; 14-day survival rate ([2]; Test Compound 1 16 mg/kg, Table 4 CSFG experiment): 80%"
"C[C@@H]1[C@H](O)[C@@H](C)/C=C/C=C/C=C/C=C/C=C/C=C/C=C/[C@H](O[C@@H]2O[C@H](C)[C@@H](O)[C@H](N)[C@@H]2O)C[C@@H]2O[C@](O)(C[C@@H](O)C[C@@H](O)[C@H](O)CC[C@@H](O)C[C@@H](O)CC(=O)O[C@H]1C)C[C@H](O)[C@H]2C(=O)O [Amphotericin B, amphotericin B]",85,0,10,5,90,0,10,0,70,0,0,30,33,0,67,0,25,0,75,0,"Effect of combination use with Test Compound 1 (FIC index evaluation) ([5]; Candida glabrata strain IFM46888, resistant to fluconazole): synergistic (A combination FIC index of 0.5 or less was evaluated as indicating synergistic action); 14-day survival rate ([2]; AMPH 0.5 mg/kg): 20%; 14-day survival rate ([2]; AMPH 1 mg/kg): 0%; Combined effects in mouse Aspergillus flavus infection model [2, 8]: synergistic combined effects"
"C[C@@H](c1ncncc1F)[C@](O)(Cn1cncn1)c1ccc(F)cc1F [Voriconazole, voriconazole]",75,0,10,15,0,0,0,100,60,0,10,30,28,0,67,6,50,0,50,0,"14-day survival rate ([1]; VRCZ 1 mg/kg): 0%; 14-day survival rate ([1]; VRCZ 2 mg/kg): 20%; Combination effects in mouse Aspergillus fumigatus infection model [1, 8]: synergistic combination effects"
